According to article PMC5379642, “Mechanistic Investigations of the Mitochondrial Complex I Inhibitor Rotenone in the Context of Pharmacological and Safety Evaluation” (Scientific Reports, 2017):

Target: T1, complex I (NADH ubiquinone reductase) (Rattus norvegicus, UniProt A6K8N6+P03889+Q641Y2)
T1 construct: gene Ndufs2; native multi-subunit complex in mitochondria isolated from frozen rat liver; with NADH dehydrogenase [ubiquinone] flavoprotein 1, mitochondrial; NADH dehydrogenase [ubiquinone] flavoprotein 2, mitochondrial; NADH-ubiquinone oxidoreductase 75 kDa subunit, mitochondrial; NADH dehydrogenase [ubiquinone] iron-sulfur protein 3, mitochondrial; NADH dehydrogenase [ubiquinone] iron-sulfur protein 8, mitochondrial; NADH-ubiquinone oxidoreductase chain 2; NADH-ubiquinone oxidoreductase chain 3; NADH-ubiquinone oxidoreductase chain 4; NADH-ubiquinone oxidoreductase chain 4L; NADH-ubiquinone oxidoreductase chain 5; NADH-ubiquinone oxidoreductase chain 6
Test: NADH oxidation at […] nm, rotenone-sensitive rate, mitochondria from dosed rats
Conditions: ex vivo after 400 ppm dietary rotenone for 1, 3 or 14 days, no in vitro dose, decylubiquinone, pH 7.2, KCN and antimycin present

T1 sequence (Q641Y2 34-463): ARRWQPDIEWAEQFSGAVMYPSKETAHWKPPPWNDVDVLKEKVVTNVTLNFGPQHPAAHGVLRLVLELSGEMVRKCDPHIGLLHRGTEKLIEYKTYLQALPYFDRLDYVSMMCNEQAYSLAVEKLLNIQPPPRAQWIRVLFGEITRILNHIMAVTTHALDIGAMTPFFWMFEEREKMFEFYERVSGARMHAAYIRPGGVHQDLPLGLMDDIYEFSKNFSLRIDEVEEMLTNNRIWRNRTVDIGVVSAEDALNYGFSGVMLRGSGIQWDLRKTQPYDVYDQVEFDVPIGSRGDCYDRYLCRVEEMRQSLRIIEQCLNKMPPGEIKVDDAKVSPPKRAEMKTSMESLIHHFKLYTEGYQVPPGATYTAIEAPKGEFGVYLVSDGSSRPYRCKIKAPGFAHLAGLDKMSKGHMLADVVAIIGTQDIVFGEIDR
T1 sequence (A6K8N6 39-218): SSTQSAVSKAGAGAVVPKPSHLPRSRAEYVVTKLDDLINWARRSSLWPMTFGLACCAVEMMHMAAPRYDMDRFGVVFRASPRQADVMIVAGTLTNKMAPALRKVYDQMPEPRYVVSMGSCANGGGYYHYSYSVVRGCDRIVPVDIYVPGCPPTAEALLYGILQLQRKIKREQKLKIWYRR
T1 sequence (P03889 whole entry): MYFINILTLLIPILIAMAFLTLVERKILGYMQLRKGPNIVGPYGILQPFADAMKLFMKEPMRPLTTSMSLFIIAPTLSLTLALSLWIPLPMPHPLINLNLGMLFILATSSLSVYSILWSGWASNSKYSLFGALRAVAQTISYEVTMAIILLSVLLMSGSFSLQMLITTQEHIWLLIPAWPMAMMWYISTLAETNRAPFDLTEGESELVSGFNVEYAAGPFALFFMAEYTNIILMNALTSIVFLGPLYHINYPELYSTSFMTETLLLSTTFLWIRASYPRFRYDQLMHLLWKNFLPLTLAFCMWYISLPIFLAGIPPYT
T1 sequence (Q5XIH3 21-464 partner): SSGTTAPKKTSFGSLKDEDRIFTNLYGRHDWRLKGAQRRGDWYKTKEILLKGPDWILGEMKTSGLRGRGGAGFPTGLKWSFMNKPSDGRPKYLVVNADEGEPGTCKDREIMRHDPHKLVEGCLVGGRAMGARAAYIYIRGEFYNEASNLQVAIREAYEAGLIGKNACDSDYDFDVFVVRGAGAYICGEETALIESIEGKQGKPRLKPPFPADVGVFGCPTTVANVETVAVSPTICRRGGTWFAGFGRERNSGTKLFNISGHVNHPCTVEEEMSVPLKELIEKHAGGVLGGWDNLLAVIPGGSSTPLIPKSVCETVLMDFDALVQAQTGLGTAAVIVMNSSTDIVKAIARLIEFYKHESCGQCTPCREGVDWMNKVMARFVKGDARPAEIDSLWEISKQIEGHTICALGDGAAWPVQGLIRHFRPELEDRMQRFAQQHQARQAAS

C=C(C)[C@H]1Cc2c(ccc3c2O[C@@H]2COc4cc(OC)c(OC)cc4[C@@H]2C3=O)O1 [rotenone]
% decrease of complex I activity vs time-matched control: 70–80%
